In patent US20210221848A1, “POLYMYXIN DERIVATIVES AND THEIR USE IN COMBINATION THERAPY TOGETHER WITH DIFFERENT ANTIBIOTICS” (priority 2014, published 2021):
Where two headings read alike, the source gives them in different places.

Tests used:
[1] = system: E. coli strains with elevated MICs to Polymyxin B; test: MIC against strains with elevated MICs to Polymyxin B; assay type: cell-based, Escherichia coli; settings: Table 6D; for MIC E. coli 058: strain 058, elevated MIC to Polymyxin B; for MIC E. coli 059: strain 059, elevated MIC to Polymyxin B; for MIC E. coli 060: strain 060, elevated MIC to Polymyxin B; for MIC E. coli 061: strain 061, elevated MIC to Polymyxin B
Protocol: (§1) The inoculum was prepared by making a direct suspension of isolated colonies (selected from an 18-24 hour Mueller-Hinton agar plate) adjusted to the 0.5 McFarland standard. […] The assays were performed in duplicate. […] In cases where the duplicate values varied by less than 2-fold, the lower of the two values is reported. If a variation of greater than 2-fold was observed, the assay was considered non-valid. Several of the compounds were subjected to multiple tests, and where this is the case, the MIC reflects the modal value obtained.
(§2) The Further Synthesis Examples were tested against a range of Gram negative bacteria, and tested for HK-2 cell toxicity. All the worked examples, including the Synthesis and Further Synthesis Examples, were also tested against a range of Gram negative bacteria that are resistant to Polymyxin B (i.e. those strains where Polymyxin B has an elevated MIC value).

[2] = system: A. baumanii strains with elevated MICs to Polymyxin B; test: as above; assay type: cell-based, Acinetobacter baumannii; settings: Table 6D; for MIC A. baumannii 053: strain 053, elevated MIC to Polymyxin B; for MIC A. baumannii 056: strain 056, elevated MIC to Polymyxin B; for MIC A. baumannii 068: strain 068, elevated MIC to Polymyxin B; for MIC A. baumannii 070: strain 070, elevated MIC to Polymyxin B
Protocol: as §1, §2

[3] = system: E. coli
[4] = system: P. aeruginosa strains with elevated MICs to Polymyxin B; test: MIC against strains with elevated MICs to Polymyxin B; assay type: cell-based, Pseudomonas aeruginosa; settings: Table 6D; for MIC P. aeruginosa 065: strain 065, elevated MIC to Polymyxin B; for MIC P. aeruginosa 066: strain 066, elevated MIC to Polymyxin B; for MIC P. aeruginosa 067: strain 067, elevated MIC to Polymyxin B
Protocol: as §1, §2

[5] = system: K. pneumoniae strains with elevated MICs to Polymyxin B; test: as above; assay type: cell-based, Klebsiella pneumoniae; settings: Table 6D; for MIC K. pneumoniae 063: strain 063, elevated MIC to Polymyxin B; for MIC K. pneumoniae 064: strain 064, elevated MIC to Polymyxin B; for MIC K. pneumoniae 655: strain 655, elevated MIC to Polymyxin B; for MIC K. pneumoniae 062: strain 062, elevated MIC to Polymyxin B
Protocol: as §1, §2

[6] = system: P. aeruginosa
[7] = system: A. baumannii
[8] = system: K. pneumoniae
[9] = absence of a second agent, Table 6B

Substance | MIC E. coli 058 [1] [micrograms/mL] | MIC E. coli 059 [1] [micrograms/mL] | MIC E. coli 060 [1] [micrograms/mL] | MIC E. coli 061 [1] [micrograms/mL] | MIC A. baumannii 053 [2] [micrograms/mL] | MIC A. baumannii 056 [2] [micrograms/mL] | MIC A. baumannii 068 [2] [micrograms/mL] | MIC A. baumannii 070 [2] [micrograms/mL] | MIC, E. coli ATCC 25922 ([3]; sole activity, Table 6C) [micrograms/mL] | MIC P. aeruginosa 065 [4] [micrograms/mL] | MIC P. aeruginosa 066 [4] [micrograms/mL] | MIC P. aeruginosa 067 [4] [micrograms/mL] | MIC K. pneumoniae 063 [5] [micrograms/mL] | MIC K. pneumoniae 064 [5] [micrograms/mL] | MIC K. pneumoniae 655 [5] [micrograms/mL] | MIC, P. aeruginosa ATCC 27853 ([6]; sole activity, Table 6C) [micrograms/mL] | MIC, P. aeruginosa CCUG 59347 ([6]; sole activity, Table 6C) [micrograms/mL] | MIC, A. baumannii ATCC BAA-747 ([7]; sole activity, Table 6C) [micrograms/mL] | MIC, A. baumannii NCTC 13424 ([7]; sole activity, Table 6C) [micrograms/mL] | MIC K. pneumoniae 062 [5] [micrograms/mL] | also measured
cis-5- (isobutylcarbamoyl) piperidine-3- carbonyl L-Thr-L- Dap-polymyxin B heptapeptide [Example D81] | 8 | 16 | 8 | 32 | 128 | 32 | 32 | 32 | 0.06 | 2 | 16 | >128 | 64 | 16 | 64 | 0.25 | 0.5 | 0.03 | 0.06 | – | MIC, K. pneumoniae ATCC 4352 ([8]; sole activity, Table 6C): 0.06 micrograms/mL; MIC, K. pneumoniae ATCC BAA-2146 ([8]; sole activity, Table 6C): 0.06 micrograms/mL
(trans-5- octylpiperidine)-3- carbonyl polymyxin B nonapeptide [Example D22] | – | 8 | 16 | 64 | >64 | >64 | 4 | 4 | – | – | >64 | >64 | >64 | >64 | >256 | – | – | – | – | >64 | MIC, E. coli ATCC 25922 [3, 9]: 4 micrograms/mL; MIC, E. coli NCTC 13441 [3, 9]: 4 micrograms/mL; MIC, P. aeruginosa ATCC 27853 [6, 9]: 2 micrograms/mL; MIC, P. aeruginosa CCUG 59347 [6, 9]: 1 micrograms/mL; MIC, A. baumannii ATCC BAA-747 [7, 9]: >8 micrograms/mL; MIC, A. baumannii NCTC 13424 [7, 9]: >8 micrograms/mL; MIC, K. pneumoniae ATCC BAA-2146 [8, 9]: >8 micrograms/mL
5- (isobutoxy)piperi- dine-3-carbonyl Polymyxin B nonapeptide [Example D63] | 16 | – | – | 32 | – | 128 | – | – | 0.06 | 4 | 32 | >256 | – | 4 | – | 0.5 | 0.5 | 0.25 | 0.25 | 128 | MIC, E. coli NCTC 13441 ([3]; sole activity, Table 6C): 0.125 micrograms/mL; MIC, K. pneumoniae ATCC 4352 ([8]; sole activity, Table 6C): 0.125 micrograms/mL; MIC, K. pneumoniae ATCC BAA-2146 ([8]; sole activity, Table 6C): 0.125 micrograms/mL
(trans-5-(isobutyl- piperidine)-3- carbonyl L-Ser- L-Dap-polymyxin B heptapeptide [Example D79] | 8 | 8 | 4 | 8 | 128 | 32 | 8 | 16 | 0.125 | 16 | 8 | >128 | >128 | 8 | 128 | 0.25 | 0.25 | 0.06 | 0.125 | 64 | MIC, E. coli NCTC 13441 ([3]; sole activity, Table 6C): 0.125 micrograms/mL; MIC, K. pneumoniae ATCC 4352 ([8]; sole activity, Table 6C): 0.06 micrograms/mL; MIC, K. pneumoniae ATCC BAA-2146 ([8]; sole activity, Table 6C): 0.125 micrograms/mL
trans-4- octylpyrrolidine-3- carbonyl polymyxin B nonapeptide [Example D31] | 2 | 8 | 4 | 16 | >128 | 64 | 4 | 4 | – | 16 | 32 | >64 | >128 | 64 | >256 | – | – | – | – | 64 | MIC, E. coli ATCC 25922 [3, 9]: 2 micrograms/mL; MIC, E. coli NCTC 13441 [3, 9]: 1 micrograms/mL; MIC, P. aeruginosa ATCC 27853 [6, 9]: 0.5 micrograms/mL; MIC, P. aeruginosa CCUG 59347 [6, 9]: 1 micrograms/mL; MIC, A. baumannii ATCC BAA-747 [7, 9]: 1 micrograms/mL; MIC, A. baumannii NCTC 13424 [7, 9]: 2 micrograms/mL; MIC, K. pneumoniae ATCC 4352 [8, 9]: 0.5 micrograms/mL
3-aminomethyl- undecanoyl L- Thr-L-Dap- polymyxin B heptapeptide [Example D91] | 1 | 0.5 | 2 | 4 | 8 | 2 | 2 | 1 | 0.5 | – | 2 | 16 | 16 | 4 | 8 | 0.5 | 0.5 | 0.25 | 0.5 | 8 | MIC, K. pneumoniae ATCC 4352 ([8]; sole activity, Table 6C): 0.25 micrograms/mL
(S)-4-amino-2- (((S)-6- methyloctyl)amino) butanoyl polymyxin B nonapeptide [Example D90] | 2 | 2 | 2 | 8 | 32 | 8 | 2 | 2 | 0.25 | 0.25 | 8 | 32 | 32 | 4 | 16 | 0.5 | 0.25 | 0.25 | 0.25 | 16 | MIC, K. pneumoniae ATCC 4352 ([8]; sole activity, Table 6C): 0.25 micrograms/mL
